According to PubChem BioAssay (NCI):
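Cells were grown in 96-well plates and exposed to each compound for 48 hours at five concentrations; endpoints were interpolated linearly between bracketing concentrations, or set to the highest concentration if not reached. At the TGI there is no net growth.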

How the values were obtained:
Assay in all cases: inhibition of tumour cell growth, NCI panel, 48 h
HOP-92 NSCLC = system: HOP-92 NSCLC
OVCAR-5 ovarian = system: OVCAR-5 ovarian
M14 melanoma = system: M14 melanoma
HOP-62 NSCLC = system: HOP-62 NSCLC
U251 CNS = system: U251 CNS
SNB-75 CNS = system: SNB-75 CNS
EKVX NSCLC = system: EKVX NSCLC
TK-10 renal = system: TK-10 renal
HCT-15 colon = system: HCT-15 colon
NCI-H23 lung = system: NCI-H23 lung
RPMI-8226 leukemia = system: RPMI-8226 leukemia
HCT-116 colon = system: HCT-116 colon
IGROV1 ovarian = system: IGROV1 ovarian
HT29 colon = system: HT29 colon
NCI-H460 lung = system: NCI-H460 lung
NCI/ADR-RES ovarian = system: NCI/ADR-RES ovarian
A498 renal = system: A498 renal
SNB-19 CNS = system: SNB-19 CNS
MDA-N = system: MDA-N
SK-MEL-5 melanoma = system: SK-MEL-5 melanoma
NCI-H522 lung = system: NCI-H522 lung
OVCAR-8 ovarian = system: OVCAR-8 ovarian
DU-145 prostate = system: DU-145 prostate
SW-620 colon = system: SW-620 colon
HS 578T breast = system: HS 578T breast
SK-MEL-2 melanoma = system: SK-MEL-2 melanoma
SK-MEL-28 melanoma = system: SK-MEL-28 melanoma
SF-295 CNS = system: SF-295 CNS
CCRF-CEM leukemia = system: CCRF-CEM leukemia
KM12 colon = system: KM12 colon
COLO 205 colon = system: COLO 205 colon
MOLT-4 leukemia = system: MOLT-4 leukemia
SK-OV-3 ovarian = system: SK-OV-3 ovarian
786-0 renal = system: 786-0 renal
MCF7 breast = system: MCF7 breast
HCC-2998 colon = system: HCC-2998 colon
RXF 393 renal = system: RXF 393 renal
PC-3 prostate = system: PC-3 prostate
UO-31 renal = system: UO-31 renal
ACHN renal = system: ACHN renal
OVCAR-4 ovarian = system: OVCAR-4 ovarian
CAKI-1 renal = system: CAKI-1 renal
UACC-257 melanoma = system: UACC-257 melanoma
A549 NSCLC = system: A549 NSCLC
UACC-62 melanoma = system: UACC-62 melanoma
K-562 leukemia = system: K-562 leukemia
OVCAR-3 ovarian = system: OVCAR-3 ovarian
SF-268 CNS = system: SF-268 CNS
MDA-MB-231 breast = system: MDA-MB-231 breast
BT-549 breast = system: BT-549 breast
MALME-3M melanoma = system: MALME-3M melanoma
MDA-MB-435 = system: MDA-MB-435
LOX IMVI melanoma = system: LOX IMVI melanoma
NCI-H226 lung = system: NCI-H226 lung
SR leukemia = system: SR leukemia
SF-539 CNS = system: SF-539 CNS
HL-60(TB) leukemia = system: HL-60(TB) leukemia
SN12C renal = system: SN12C renal

Measured: TGI

Cc1cc(-c2ccc[nH]2)on1
not listed: LOX IMVI melanoma | NCI-H226 lung | SR leukemia | SF-539 CNS | HL-60(TB) leukemia | SN12C renal
> 100 µM: all other assays above

O=C(c1cc(Cl)ccc1Cl)N1CCN(c2ccc(Cl)c(Cl)c2)CC1
45.5 µM: OVCAR-8 ovarian
72 µM: MCF7 breast
44.1 µM: A498 renal
83.9 µM: HT29 colon | UACC-257 melanoma
84.1 µM: LOX IMVI melanoma
76.4 µM: SF-539 CNS
48.5 µM: 786-0 renal
52.6 µM: NCI-H522 lung
96.2 µM: MDA-N
54.3 µM: MOLT-4 leukemia
85.4 µM: K-562 leukemia
30.3 µM: SK-MEL-5 melanoma
54.1 µM: RXF 393 renal
33.8 µM: UO-31 renal
51.9 µM: KM12 colon
80.8 µM: BT-549 breast
97.8 µM: PC-3 prostate
36.1 µM: NCI-H460 lung
not listed: M14 melanoma | NCI/ADR-RES ovarian | SNB-19 CNS | SK-MEL-2 melanoma | COLO 205 colon | SK-OV-3 ovarian | UACC-62 melanoma | MDA-MB-435
> 100 µM: all other assays above

O=c1cnnc2sc(=S)[nH]n12
64.4 µM: BT-549 breast
79.9 µM: HL-60(TB) leukemia
74 µM: IGROV1 ovarian
39.8 µM: MCF7 breast
57.9 µM: SK-MEL-5 melanoma
36.8 µM: K-562 leukemia
49.8 µM: 786-0 renal
75.3 µM: U251 CNS
34.3 µM: OVCAR-8 ovarian
62.3 µM: SR leukemia
29.1 µM: RPMI-8226 leukemia
12.1 µM: CCRF-CEM leukemia
13.9 µM: LOX IMVI melanoma
57.3 µM: HCT-15 colon
68.2 µM: CAKI-1 renal
9.18 µM: HOP-62 NSCLC
24.9 µM: SW-620 colon
42.2 µM: MOLT-4 leukemia
53.4 µM: OVCAR-4 ovarian
78.4 µM: UACC-257 melanoma
27 µM: NCI-H522 lung
52.1 µM: UO-31 renal
not listed: HOP-92 NSCLC | SNB-75 CNS | TK-10 renal | NCI-H23 lung | SK-OV-3 ovarian | RXF 393 renal | MDA-MB-231 breast | NCI-H226 lung | SN12C renal
> 100 µM: all other assays above
